Data reported in patent US20110092462A1, “USE OF HIGH-DOSE OXAZAPHOSPHORINE DRUGS FOR TREATING IMMUNE DISORDERS” (The Johns Hopkins University, priority 2005, published 2011).
Where two headings read alike, the source gives them in different places.

How the values were obtained:
[1] = system: patients with myasthenia gravis; conditions: 7 patients refractory to conventional immunosuppressive therapy
[2] = system: patient with pemphigus vulgaris
[3] = system: patients with aggressive MS; conditions: eight patients
Procedure: Open-label trial of patients with aggressive MS were given an up-front regimen of 50 mg/kg/d for four consecutive days. Enrolled patients had aggressive MS as defined by 2 or more total gadolinium enhancing lesions on each of two pretreatment MRI scans; at least one clinical exacerbation in the last year despite being on conventional MS therapy; and sustained increase of >1.0 on the EDSS in the preceding year.
All patients developed transient severe neutropenia, an expected consequence, followed by immune reconstitution in 10-17 days.

[4] = system: HLA-specific antibodies in SAA patients
[5] = system: previously untreated SAA patients
[6] = system: patients with refractory autoimmune hemolytic anemia
Source text: The median hemoglobin at the time of treatment was 6.7 (range; 5-10) g/dl and 8 of the 9 patients were dependent on erythrocyte transfusions.

[7] = system: patients with severe refractory autoimmune disorders
[8] = system: patient with paraneoplastic pemphigus
[9] = system: patients with moderate to severe systemic lupus erythematosus (SLE)
SAA patients [10] = conditions: for mortality within 6 months after treatment / patients achieving remission: 38 newly diagnosed patients
Source text: Response was defined as ANC >1000/d1 and transfusion independence without growth factor support for >3 months. Relapse was defined as no longer meeting criteria for response. Development of paroxysmal nocturnal hemoglobinuria was monitored by flow cytometry.
The median age of the newly diagnosed patients was 40 (range 2-68) years.

SAA patients [11] = conditions: 10 SAA patients
[12] = 50 mg/kg/d for four consecutive days
[13] = after the last dose of cyclophosphamide

Procedure for patients with HAA: Serology/PCR for HAV, HBV, HCV, EBV, and CMV were negative. All patients met criteria for very severe aplastic anemia pretreatment: bone marrow cellularity <25%, ANC <200 μL, platelet count <20,000/μL, absolute reticulocyte count <60,000/μL. Infection prophylaxis consisted of trimethoprim/sulfamethoxazole, G-CSF, and fluconazole.

O=P1(N(CCCl)CCCl)NCCCO1 (centres unmarked) [high-dose cyclophosphamide, cyclophosphamide]
markedly improved, and returned to full activity [1]: All of these patients
pathogenic autoantibodies specific for the disease ([2]; after treatment): undetectable
remission ([2]; in vivo): durable complete remissions
began to recover neutrophils ([2]; one patient): ≤ 9 days
need for red cell transfusions ([2]; one patient): did not require red cell transfusions
platelet transfusions received ([2]; one patient): 2
brain atrophy [3]: slowed in several patients
clinical exacerbation following treatment [3]: No patient
improvement in the MSFC following treatment [3]: most patients
reduction in EDSS following treatment [3]: most patients
reduction or elimination of new and enhancing lesions on the MRI [3]: All patients
time to immune reconstitution after neutropenia [3, 12]: 10 to 17 days
transient severe neutropenia [3, 12]: All patients
unexpected grade 3 or 4 adverse event [3, 12]: no patients
marked reduction in anti-HLA antibody titer ([4]; after treatment): All four responders
complete remission of the SAA ([4]; five patients with HLA-specific antibodies): four of these five
anti-HLA antibody completely eradicated ([4]; of four responders): three
median time to a neutrophil count of 500 μL ([5]; 19 patients): 49 days
probability of achieving treatment-free remission ([5]; 19 patients, 95% CI 51-91%): 73%
probability of survival ([5]; at 24 months, 19 patients, 95% CI 59-95%): 84%
relapse or secondary clonal disorders ([5]; responding patients): No responding patients
complete remission (normal untransfused hemoglobin for age and sex) ([6]; 9 patients): 6 patients
median time to a neutrophil count of 500 per μL ([6]; 9 patients): 16 days
median time to platelet transfusion independence ([6]; 9 patients): 15 days
partial remission (hemoglobin >10.0 g/dl without support of transfusions) ([6]; 9 patients): 3 patients
responded and became transfusion independent ([6]; 9 patients): All patients
patients able to discontinue steroids ([6]; in vivo): 7 of the 9
relapses ([6]; median follow-up of 15 (range 4-29) months): no relapses
median time to a neutrophil count of 500 per μL [7, 13]: 17 days
median time to platelet transfusion independence [7, 13]: 16 days
complete remission ([7]; eight patients): five
marked clinical improvement ([7]; eight patients): Seven patients
partial remission ([7]; eight patients): 2
pathogenic autoantibodies specific for the disease ([8]; after treatment): undetectable
remission ([8]; in vivo): durable complete remissions
need for blood products ([8]; one patient): did not require blood products
recovery to a neutrophil count of greater than 500 per μL ([8]; one patient): ≤ 15 days
duration of remission after treatment without further immune suppression (patients with HAA; 4 patients with hematopoietic responses): up to 6 years
autoimmune hepatitis (AIH) status (patients with HAA; Patient 2): remains in remission
hematologic response (patients with HAA; Patient 5, proceeded to unrelated BMT after 5 months): no hematopoietic response
hematopoietic recovery (patients with HAA; five patients, 50 mg/kg/day IV×4 days plus mesna): Four patients
durable remissions in hepatitis-associated aplastic anemia (patients with HAA; follow-up 1-6 years): 4 of 5
median time to ANC >500/μL (patients with HAA; range 44-369): 51 days
median time to transfusion independence for platelets (patients with HAA; range 48-679): 160 days
median time to transfusion independence for erythrocytes (patients with HAA; range 57-679): 109 days
death from treatment failure (patients with HAA; series of 5 patients): one death
deaths or fungal infections ([9]; 14 patients): no deaths or fungal infections
durable complete responses ([9]; 14 patients): 5
median time to a neutrophil count of 500 μl ([9]; after the last dose, range 11 to 22 days, 14 patients): 14 days
improvement in Physicians Global Assessment, mean difference ([9]; p<0.0001): 1.3
improvement in prednisone dosage, mean difference ([9]; p=0.01): 12.8 mg
improvement in systemic lupus erythematosus disease activity index, mean difference ([9]; p=0.042): 3.5
median day to last platelet transfusion ([9]; range 0 to 23): 16 days
median transfusions of packed red blood cells required ([9]; range 2 to 5): 2 transfusions
PNH clone (SAA patients [10]; 12 patients with a PNH population): regressing in all 12 patients
durable remission (SAA patients [10]; 12 patients with a PNH population 0.5-40% of granulocytes, p=0.039): all 12
patients in remission (SAA patients [10]; 17 patients who failed immunosuppressive therapy): nine
additional patient died from bacterial sepsis (SAA patients [10]; 18 months after treatment): 1 patient
mortality within 6 months after treatment (SAA patients [10]): 10.5%
patients achieving remission (SAA patients [10]; 95% CI 58-85%): 74%
mortality within 6 months after treatment (SAA patients [10]; all with vSAA): 4 patients
patients achieving remission (SAA patients [10]; most complete): 28 patients
patients in remission (SAA patients [10]; SAA (not very severe) subgroup of 23): 20 patients
patients surviving in remission (SAA patients [10]; eight patients with a severe infection at beginning of treatment): 5 patients
median time to ANC of 500 (SAA patients [10]; newly diagnosed patients): 50 days
median time to last platelet transfusion (SAA patients [10]; newly diagnosed patients): 99 days
median time to last red cell transfusion (SAA patients [10]; newly diagnosed patients): 181 days
patients relapsed (SAA patients [10]; newly diagnosed series): Two patients
progression to PNH or MDS (SAA patients [10]; newly diagnosed series): No patient
actuarial survival (SAA patients [10]; newly diagnosed, 95% CI 72-95%): 86%
patients surviving (SAA patients [10]; newly diagnosed, median follow-up 41 (range 6-111) months): 33/38
patients alive (SAA patients [10]; patients who failed immunosuppressive therapy): Ten of the 17
patients in remission (SAA patients [10]; vSAA subgroup of 15): 10 patients
complete remission (normocellular bone marrow, hemoglobin >13.0 g/dl, neutrophil count >[…]10^9/L, platelet count greater than 125×10^9/L) (SAA patients [11]): seven of ten
